Calls of active or inactive are those of the source. No cut-off for these calls is given here.
Key:
HCT-116 [1] = assay: Cytotoxicity against human HCT-116 cells assessed as inhibition rate incubated for 48 hrs by MTT; format: functional, cell-based; conditions: HCT-116, 48 h
HeLa = assay: Cytotoxicity against human HeLa cells assessed as inhibition rate incubated for 48 hrs by MTT; format: functional, cell-based
MDA-MB-231 = assay: Cytotoxicity against human MDA-MB-231 cells assessed as inhibition rate incubated for 48 hrs by MTT; format: functional, cell-based; conditions: MDA-MB-231, 48 h
A498 = assay: Cytotoxicity against human A498 cells assessed as inhibition rate incubated for 48 hrs by MTT; format: functional, cell-based; conditions: A498, 48 h
HCT-116 [2] = assay: Inhibition of cell proliferation in human HCT-116 cells at 10 uM by colony formation assay relative to control; format: functional, cell-based
HCT-116 [3] = assay: Inhibition of cell adhesion in human HCT-116 cells at 10 uM; format: functional, cell-based
HCT-116 [4] = assay: Inhibition of cell migration in human HCT-116 cells assessed as repair capacity at 5 to 10 uM measured upto 48 hrs by scratch assay; format: functional, cell-based; conditions: dose 5-10 µM
HCT-116 [5] = assay: Inhibition of cell adhesion in human HCT-116 cells at 5 uM; format: functional, cell-based
HCT-116 [6] = assay: Inhibition of cell invasion in human HCT-116 cells at 5 uM by Transwell assay; format: functional, cell-based
HCT-116 [7] = assay: Activation of TNFR-mediated TNF signaling pathway in human HCT-116 cells by GSEA analysis; format: cell-based; conditions: filed as activator
[8] = target: Cellular tumor antigen p53 (Homo sapiens) (UniProt P04637); assay: Activation of p53 signaling pathway in human HCT-116 cells by GSEA analysis; format: cell-based; conditions: filed as activator
HCT-116 [9] = assay: Induction of DNA damage in human HCT-116 cells assessed as upregulation of gamma-H2AX level incubated for 24 hrs by immunoblotting analysis; format: functional, cell-based; conditions: dose 2.5-10 µM
HCT-116 [10] = assay: Antitumor activity against human HCT116 cells xenografted in chick embryo chorioallantoic membrane assessed as reduction in tumor volume by CAM assay; format: functional, cell-based; conditions: dose 5-10 µM
HCT-116 [11] = assay: Induction of DNA damage in human HCT-116 cells assessed as upregulation of gamma-H2AX level at 10 uM by immunoblotting analysis; format: functional, cell-based
HCT-116 [12] = assay: Induction of DNA damage in human HCT-116 cells assessed as upregulation of p53 level at 10 uM incubated for 24 hrs by immunoblotting analysis; format: functional, cell-based
HCT-116 [13] = assay: Induction of DNA damage in human HCT-116 cells assessed as upregulation of BAX level at 10 uM incubated for 24 hrs by immunoblotting analysis; format: functional, cell-based
HCT-116 [14] = assay: Induction of DNA damage in human HCT-116 cells assessed as downregulation of BCL2 level at 10 uM incubated for 24 hrs by immunoblotting analysis; format: functional, cell-based
HCT-116 [15] = assay: Induction of DNA damage in human HCT-116 cells assessed as upregulation of p53 level at 5 uM incubated for 24 hrs by immunofluorescence based analysis; format: functional, cell-based
HCT-116 [16] = assay: Induction of DNA damage in human HCT-116 cells assessed as upregulation of p53 level at 10 uM incubated for 24 hrs by immunofluorescence based analysis; format: functional, cell-based
HCT-116 [17] = assay: Induction of DNA damage in human HCT-116 cells assessed as upregulation of p21 level incubated for 24 hrs by PCR analysis; format: functional, cell-based; conditions: dose 2.5-10 µM
HCT-116 [18] = assay: Antitumor activity against human HCT116 cells xenografted in chick embryo chorioallantoic membrane assessed as reduction in angiogenesis by CAM assay; format: functional, cell-based; conditions: dose 5-10 µM

Sequence of Cellular tumor antigen p53 (Homo sapiens) (P04637 whole entry, looked up): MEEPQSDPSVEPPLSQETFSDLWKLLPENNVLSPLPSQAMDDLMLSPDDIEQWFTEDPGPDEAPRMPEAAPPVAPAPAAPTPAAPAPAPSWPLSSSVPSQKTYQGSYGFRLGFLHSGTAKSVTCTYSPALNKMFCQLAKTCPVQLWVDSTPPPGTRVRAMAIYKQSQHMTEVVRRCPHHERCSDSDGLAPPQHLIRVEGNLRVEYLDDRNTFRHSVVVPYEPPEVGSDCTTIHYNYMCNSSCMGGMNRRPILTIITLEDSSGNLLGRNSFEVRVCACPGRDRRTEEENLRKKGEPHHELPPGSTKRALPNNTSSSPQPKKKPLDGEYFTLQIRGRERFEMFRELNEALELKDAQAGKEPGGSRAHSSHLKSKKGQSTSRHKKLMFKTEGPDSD

Row | Compound | IC50 (HCT-116 [1]) [µM] | IC50 (HeLa) [µM] | IC50 (MDA-MB-231) [µM] | IC50 (A498) [µM] | inhibition (HCT-116 [2]) | inhibition (HCT-116 [3]) | Activity (HCT-116 [4]) | further results
1 | CCOc1cc2ncc(C#N)c(Nc3ccc(OCc4ccccn4)c(Cl)c3)c2cc1NC(=O)/C=C/CN(C)C [NERATINIB] | 17.3 | 18.2 | 27.7 | 19.5 | Active | Active | Active | –
2 | O=C(Nc1ccc(OCc2ccccn2)c(Cl)c1)c1ccc(CN2CCN(C(=O)C3CC3)CC2)cc1 | 7.21 | 13.5 | 17.8 | 18.5 | Active; Significantly Decreased Colony Formation | Active | Dose-dependent-effect; Stronger Inhibition | inhibition (HCT-116 [5]): Active; inhibition (HCT-116 [6]): Active; Activity (HCT-116 [7]): Active; Activity [8]: Active; Activity (HCT-116 [9]): Dose-dependent-effect; Activity (HCT-116 [10]): Dose-dependent-effect; Activity (HCT-116 [11]): Time-dependent-effect; Activity (HCT-116 [12]): Active; Activity (HCT-116 [13]): Active; Activity (HCT-116 [14]): Active; Activity (HCT-116 [15]): Active; Activity (HCT-116 [16]): Active; Activity (HCT-116 [17]): Dose-dependent-effect; Activity (HCT-116 [18]): Dose-dependent-effect
